Test results as given in patent US20230076310A1, “COMPOSITION USING NOVEL LACTOBACILLUS PLANTARUM KC3 STRAIN FOR PREVENTION OR TREATMENT OF IMMUNE IMPAIRMENT, RESPIRATORY INFLAMMATORY DISEASE, ALLERGY, AND ASTHMA AND USE THEREOF” (KT&G CORPORATION, priority 2020, published 2023).

What was measured:
Type in all cases: in vivo, BALb/c male mice
[1] = tested on: total number of cells in bronchoalveolar lavage (BAL) fluid; experiment: Total number of cells in BAL fluid, mouse model of respiratory damage by air pollutants; details: oral, 11 days (KC3 1×10^9 CFU/mouse; positive control 3 mg per kg BW per day), BAL fluid on 12th day
Description: (§1) BALb/c male mice (Orient Bio Inc., 8-week-old) were divided into groups of 6 mice, and for all groups except for the normal group, components of air pollutants, i.e., 10 mg/ml of coal combustible materials, 10 mg/ml of fly ash, and 5 mg/ml of diesel exhaust particle (DEP) were diluted so that a final concentration of Alum was 1%, and so that a final concentration of each component was 1.5 mg/ml for coal combustible material/fly ash and […] for DEP in a mixture. Then, on each of the 4th, 7th, and 10th days from the start of the experiment, 50 μl of the mixture was directly injected into the airway and nose of the experimental animals according to the Intra-Nazal-Trachea (INT) injection method described in the document (Lim et al., Free Radic Biol Med. 25(6), 635-644. (1998), Shin et al., Korean J. Medicinal Crop Sci 27(3), 218-231. (2019)).
(§2) For a positive control group (dexamethasone, Sigma D2915), lactic acid bacteria (Lactobacillus plantarum KC3, KC3) was diluted at a concentration of 1×10^9 CFU/mouse in a solution containing 0.5% sodium carboxymethyl cellulose (CMC, 419273, Sigma-Aldrich), and then orally administered at a dosage of 3 mg per kg of body weight (BW) per day (for 11 days). On the 12th day after the start of the experiment, an autopsy was performed on the mice, and bronchoalveolar lavage (BAL) fluid was collected. […]

neutrophils in BAL fluid = experiment: Number of neutrophils in BAL fluid, mouse model of respiratory damage by air pollutants; details: oral, 11 days (KC3 1×10^9 CFU/mouse; positive control 3 mg per kg BW per day)
Description: as §1, §2

CXCL-1 = experiment: Inflammation factors in BAL fluid (ELISA), mouse model of respiratory damage by air pollutants; details: oral, 11 days (KC3 1×10^9 CFU/mouse; positive control 3 mg per kg BW per day)
Description: as §1
(§3) For a positive control group (dexamethasone, Sigma D2915), lactic acid bacteria (Lactobacillus plantarum KC3, KC3) was diluted at a concentration of 1×10^9 CFU/mouse in a solution containing 0.5% sodium carboxymethyl cellulose (CMC, 419273, Sigma-Aldrich), and then orally administered at a dosage of 3 mg per kg of body weight (BW) per day (for 11 days). On the 12th day after the start of the experiment, an autopsy was performed on the mice, and bronchoalveolar lavage (BAL) fluid was collected.
(§4) To confirm effects of the samples in Examples above on expression levels of inflammation factors in the BAL fluid, an experiment was carried out as follows by applying the method described in the document (Brandt E B et al., J. Allergy Clin. Immunol., 132(5):1194-1204, (2013)).
(§5) An evaluation test was performed using ELISA to measure the expression levels of inflammation factors, such as IL-17A, TNF-α MIP2, and CXCL-1, in the BAL fluid.
(§6) The experiment was carried out in the same manner as in Experimental Examples 4-2 and 4-3, except that […].
(§7) The expression levels of IL-17A, TNF-α MIP2, and CXCL-1 in the BAL fluid were measured using ELISA. IL-17A antibodies (M1700, R&D Systems, Minneapolis, USA), TNF-α antibodies (MTA00B, R&D Systems, Minneapolis, USA), MIP2 antibodies (MM200, R&D Systems, Minneapolis, USA), and CXCL-1 antibodies (MKC00B, R&D Systems, Minneapolis, USA) were diluted with a buffer solution and coated micro-wells, and then cultured at 4° C. for 16 hours. Each well was washed with a washing buffer solution three times, and 10-fold diluted […] was dispensed at 100 μl per well.
(§8) After being left at room temperature for one hour, the wells were washed twice. Then, 100 μl of Avidin-HRP-conjugated antibodies (DY007, R&D Systems, Minneapolis, USA) was treated thereon, and the wells were left again at room temperature for one hour, followed by washing again. A TMB substrate solution (DY007, R&D Systems, Minneapolis, USA) was dispensed at 100 μl per well, and the well plate was left in shadow for 30 minutes. Then, 50 μl of a stopping solution (DY007, R&D Systems, Minneapolis, USA) was treated thereon, and absorbance of the […] was measured at 450 nm.

IL-17A = experiment: as above; details: oral, 11 days (KC3 1×10^9 CFU/mouse; positive control 3 mg per kg BW per day)
Description: as §1, §3, §4, §5, §6, §7, §8

MIP2 = experiment: as above; details: oral, 11 days (KC3 1×10^9 CFU/mouse; positive control 3 mg per kg BW per day)
Description: as §1, §3, §4, §5, §6, §7, §8

TNF-α = experiment: as above; details: oral, 11 days (KC3 1×10^9 CFU/mouse; positive control 3 mg per kg BW per day)
Description: as §1, §3, §4, §5, §6, §7, §8

## C[C@@H]1C[C@H]2[C@@H]3CCC4=CC(=O)C=C[C@]4(C)[C@@]3(F)[C@@H](O)C[C@]2(C)[C@@]1(O)C(=O)CO [Positive control group, dexamethasone]
[1]
  Inhibition rate (based on induction group), total BAL cell: 11%
[1]; induction group 81.2 ± 19.8
  Total BAL cell: 72.6 ± 9.5 ×10^4 cells/ml
Neutrophils in BAL fluid
  Inhibition rate (based on induced group), neutrophils: 10%
Neutrophils in BAL fluid; Diff-Qick staining, induction group 119 ± 13
  Neutrophile No of BAL cel (400X): 108 ± 9
CXCL-1
  CXCL-1 inhibition rate (%) based on induced group: (46%)
CXCL-1; ELISA, induction group 327 ± 41
  CXCL-1 concentration in BAL fluid: 174 ± 15 pg/mL
IL-17A
  IL-17A inhibition rate (%) based on induced group: (47%)
IL-17A; ELISA, induction group 13.4 ± 1.5
  IL-17A concentration in BAL fluid: 7.0 ± 0.8 pg/mL
MIP2
  MIP2 inhibition rate (%) based on induced group: (19%)
MIP2; ELISA, induction group 68 ± 7
  MIP2 concentration in BAL fluid: 55 ± 9 pg/mL
TNF-α
  TNF-α inhibition rate (%) based on induced group: (66%)
TNF-α; ELISA, induction group 366 ± 45
  TNF-α concentration in BAL fluid: 121 ± 14 pg/mL
